{
  "source": "patent US20220160686A1",
  "about": "“MACROCYCLIC AZOLOPYRIDINE DERIVATIVES AS EED AND PRC2 MODULATORS” (Fulcrum Therapeutics, Inc., priority 2019, published 2022)",
  "data": [
    {"system": "human P-glycoprotein HEK cells (HEK-P-gp)", "experiment": "H3K27me3 immunocytochemistry assay in P-gp expressing HEK293T cells, with or without elacridar", "assay_type": "cell-based", "settings": "not given", "description": "(§1) A plasmid encoding the human ABCB1 gene under the control of a CMV promoter was purchased from Origene (Cat #RC216080). The HEK293T cells were purchased from ATCC (Cat #CRL-3216) and were cultured for expansion in the recommended conditions. The HEK293T cells were transfected with 2 ug of the pCMV-ABCB1 plasmid using Lipofectamine 3000 following recommendations from the manufacturer (ThermoFisher Scientific, Cat #L3000008). After 24 h, cells were dissociated, and 5000 cells were seeded on a 10 cm tissue culture dish. On the next day, fresh media containing 5 nM Vinblastine (Sigma, Cat #V1377) was added, and media containing compound was replenished every 72 h. After surviving cells reached confluency, cells were passaged, and lines were maintained in the presence of 2.5 nM Vinblastine until further characterization.\n(§2) P-gp expressing HEK293T, HUDEP2, and Human Mobilized Peripheral Blood Primary CD34+ cells were cultured for use in an H3K27me3 immunocytochemistry assay. HUDEP2 and Human Mobilized Peripheral Blood Primary CD34+ cells were cultured for use in an HbF immunocytochemistry assay. P-gp expressing HEK293T cells were maintained and passaged every 3-4 days by plating 300,000 viable cells in a T-25 culture flask containing 6 mLs of 293 Passaging Media comprised of DMEM (ThermoFisher #10566016), 10% fetal bovine serum (ThermoFisher #A3160502), 1% penicillin-streptomycin (ThermoFisher #15140122), and 2.5 nM Vinblastine (Sigma #V1377). To evaluate the inhibitory effect of the compounds of the present disclosure and their brain penetrant properties via P-gp mediated efflux, the H3K27me3 immunocytochemistry assay was conducted in the presence or absence of 250 nM of the P-gp inhibitor, elacridar. Poor brain penetrant compounds were expected to show higher potencies in the presence of Elacridar. However, brain penetrant compounds would show similar potencies irrespective of whether Elacridar is present or not. In these experiments plates without elacridar were seeded with P-gp expressing HEK293T cells at 1000 viable cells per well in a poly-d-lysine coated 384-well plate (Corning Cat #356697) in 45 μL of 293 Assay Media comprised of DMEM (ThermoFisher #10566016), 10% fetal bovine serum (ThermoFisher #A3160502), 1% penicillin-streptomycin (ThermoFisher #15140122). A replicate set of plates were seeded under the same conditions with 45 μL of 293 Assay Media supplemented with 250 nM of Elacridar to inhibit P-gp activity. Compounds were serially diluted at 10× concentration in 293 Media, and 5 μL transferred to their respective wells on both sets of plates for a total volume of 50 μL per well. The compound treated HEK293T cells were allowed to incubate for 4 days at 37° C., 85% relative humidity, and 5% CO2 before proceeding to ICC Fix and Stain protocol.\n(§3) The Fix and Stain Protocol was the same for HEK293T, HUDEP2, and Primary CD34+ cell assays except the specific primary and secondary antibodies used for detection. Following 4 days of compound treatment, the respective plates were washed once with 25 μL of PBS (ThermoFisher #10010023) and fixed with 25 μL of 4% paraformaldehyde (ThermoFisher #28908) for 10 minutes at room temperature. The plates were then washed three times with 25 μL of PBS. Subsequent to that, the cells were permeabilized and blocked for 1 hour at room temperature in 25 μL of Perm/Block buffer comprised of IX PBS, 1% bovine serum albumin (ThermoFisher #A3294), 10% fetal bovine serum (ThermoFisher #A3160502), 0.3M glycine (Sigma #G7126), and 0.1% tween-20 (Sigma #P7949). This was followed by additional washing (three times) of the plates with 25 μL of 0.1% tween in PBS.\n(§4) For the H3K27me3 assay, the cells were incubated overnight at 4° C. with 25 μL of H3K27me3 Primary Antibody (Cell Signaling #9733) diluted 1:200 in 0.1% tween-20 in PBS. […]", "units": {"IC50": "nM"}, "values": [
      {"compound": "COc1cc(C)c(-c2cc3c(n4cnnc24)NCc2c(F)ccc4c2[C@@H](CO4)CO3)cn1", "note": "[Example 68, (S)-12-fluoro-4-(6-methoxy-4-methylpyridin-3-yl)-7a,8,13,14-tetrahydro-7H-[1,2,4]triazolo[4′,3′:1,6]pyrido[3,2-b]benzofuro[4,3-fg][1,4]oxazonine]", "IC50": "50 to 100"},
      {"compound": "Cn1cc(-c2cc3c(n4cnnc24)NCc2c(F)ccc4c2[C@@H](CO4)CO3)ccc1=O", "note": "[Example 69, (S)-5-(12-fluoro-7a,8,13,14-tetrahydro-7H-[1,2,4]triazolo[4′,3′:1,6]pyrido[3,2-b]benzofuro[4,3-fg][1,4]oxazonin-4-yl)-1-methylpyridin-2(1H)-one]", "IC50": "< 25"},
      {"compound": "COc1nccc(C)c1-c1cc2c(n3cnnc13)NCc1c(F)ccc3c1[C@@H](CO3)CO2", "note": "[Example 71, (S)-12-fluoro-4-(2-methoxy-4-methylpyridin-3-yl)-7a,8,13,14-tetrahydro-7H-[1,2,4]triazolo[4′,3′:1,6]pyrido[3,2-b]benzofuro[4,3-fg][1,4]oxazonine]", "IC50": "< 25"},
      {"compound": "Fc1ccc2c3c1CNc1c(cc(-c4ccnn4CC(F)(F)F)c4nncn14)OC[C@@H]3CO2", "note": "[Example 72, (S)-12-fluoro-4-(1-(2,2,2-trifluoroethyl)-1H-pyrazol-5-yl)-7a,8,13,14-tetrahydro-7H-[1,2,4]triazolo[4′,3′:1,6]pyrido[3,2-b]benzofuro[4,3-fg][1,4]oxazonine]", "IC50": "50 to 100"},
      {"compound": "Cc1nc(-c2cc3c(n4cnnc24)NCc2c(F)ccc4c2[C@@H](CO4)CO3)ccc1C(F)F", "note": "[Example 77, (S)-4-(5-(difluoromethyl)-6-methylpyridin-2-yl)-12-fluoro-7a,8,13,14-tetrahydro-7H-[1,2,4]triazolo[4′,3′:1,6]pyrido[3,2-b]benzofuro[4,3-fg][1,4]oxazonine]", "IC50": "100 to 500"},
      {"compound": "Cc1nccc(-c2cc3c(n4cnnc24)NCc2c(F)ccc4c2[C@@H](CO4)CO3)c1F", "note": "[Example 86, (S)-12-fluoro-4-(3-fluoro-2-methylpyridin-4-yl)-7a,8,13,14-tetrahydro-7H-[1,2,4]triazolo[4′,3′:1,6]pyrido[3,2-b]benzofuro[4,3-fg][1,4]oxazonine]", "IC50": "25 to 50"},
      {"compound": "CN(C)c1cc(-c2cc3c(n4cnnc24)NCc2c(F)ccc4c2[C@@H](CO4)CO3)n(C)n1", "note": "[Example 91, (S)-5-(12-fluoro-7a,8,13,14-tetrahydro-7H-[1,2,4]triazolo[4′,3′:1,6]pyrido[3,2-b]benzofuro[4,3-fg][1,4]oxazonin-4-yl)-N,N,1-trimethyl-1H-pyrazol-3-amine]", "IC50": "100 to 500"},
      {"compound": "Cn1cnc(-c2cc3c(n4cnnc24)NCc2c(F)ccc4c2[C@@H](CO4)CO3)c1", "note": "[Example 94, (S)-12-fluoro-4-(1-methyl-1H-imidazol-4-yl)-7a,8,13,14-tetrahydro-7H-[1,2,4]triazolo[4′,3′:1,6]pyrido[3,2-b]benzofuro[4,3-fg][1,4]oxazonine]", "IC50": "25 to 50"},
      {"compound": "Cc1cc(C)c(-c2cc3c(n4cnnc24)NCc2c(F)ccc4c2[C@@H](CO4)CO3)cn1", "note": "[Example 96, (S)-4-(4,6-dimethylpyridin-3-yl)-12-fluoro-7a,8,13,14-tetrahydro-7H-[1,2,4]triazolo[4′,3′:1,6]pyrido[3,2-b]benzofuro[4,3-fg][1,4]oxazonine]", "IC50": "50 to 100"},
      {"compound": "CN(C)C(=O)c1ccc(-c2cc3c(n4cnnc24)NCc2c(F)ccc4c2[C@@H](CO4)CO3)cn1", "note": "[Example 152, (S)-5-(12-fluoro-7a,8,13,14-tetrahydro-7H-[1,2,4]triazolo[4′,3′:1,6]pyrido[3,2-b]benzofuro[4,3-fg][1,4]oxazonin-4-yl)-N,N-dimethylpicolinamide]", "IC50": "< 25"},
      {"compound": "(S)-1-(4-(12-fluoro-7a,8,13,14-tetrahydro-7H-[1,2,4]triazolo[4′,3′:1,6]pyrido[3,2-b]benzofuro[4,3-fg][1,4]oxazonin-4-yl)piperidin-1-yl)ethan-1-one [Compound 9]", "IC50": "> 500"},
      {"compound": "(S)-12-fluoro-4-(2-methylpyridin-3-yl)-7a,8,13,14-tetrahydro-7H-[1,2,4]triazolo[4′,3′:1,6]pyrido[3,2-b]benzofuro[4,3-fg][1,4]oxazonine [Compound 8]", "IC50": "< 25"}
    ]},
    {"system": "human P-glycoprotein HEK cells (HEK-P-gp)", "experiment": "H3K27me3 immunocytochemistry assay in P-gp expressing HEK293T cells, with or without elacridar", "assay_type": "cell-based", "settings": "Homo sapiens, HEK293, 96 h, without elacridar; 4 days compound treatment; read-out: IC50, inhibitory activity on human P-glycoprotein HEK cells (HEK-P-gp)", "description": "as §1, §2, §3, §4", "units": {"IC50": "nM"}, "values": [
      {"compound": "COC(=O)N1CCC(c2cc3c(n4cnnc24)NCc2c(F)cccc2COC3)CC1", "note": "[Compound 181, methyl 4-(12-fluoro-6,8,13,14-tetrahydro-[1,2,4]triazolo[4′,3′:1,6]pyrido[3,2-c]benzo[g][1,5]oxazonin-4-yl)piperidine-1-carboxylate]", "IC50": "> 500"},
      {"compound": "Cc1ncc(-c2cc3c(n4cnnc24)NCc2c(F)cccc2COC3)c(C)n1", "note": "[Compound 182, 4-(2,4-dimethylpyrimidin-5-yl)-12-fluoro-6,8,13,14-tetrahydro-[1,2,4]triazolo[4′,3′:1,6]pyrido[3,2-c]benzo[g][1,5]oxazonine]", "IC50": "> 500"},
      {"compound": "Cn1cc(Cc2cc3c(n4cnnc24)NCc2c(F)cccc2COC3)cn1", "note": "[Compound 183, 12-fluoro-4-((1-methyl-1H-pyrazol-4-yl)methyl)-6,8,13,14-tetrahydro-[1,2,4]triazolo[4′,3′:1,6]pyrido[3,2-c]benzo[g][1,5]oxazonine]", "IC50": "> 500"}
    ]},
    {"system": "human P-glycoprotein HEK cells (HEK-P-gp)", "experiment": "H3K27me3 immunocytochemistry assay in P-gp expressing HEK293T cells, with or without elacridar", "assay_type": "cell-based", "settings": "Homo sapiens, HEK293, with 250 nM elacridar; 4 days compound treatment; read-out: IC50, inhibitory activity on human P-glycoprotein HEK cells (HEK-P-gp) pretreated with elacridar", "description": "as §1, §2, §3, §4", "units": {"IC50": "nM"}, "values": [
      {"compound": "COC(=O)N1CCC(c2cc3c(n4cnnc24)NCc2c(F)cccc2COC3)CC1", "note": "[Compound 181, methyl 4-(12-fluoro-6,8,13,14-tetrahydro-[1,2,4]triazolo[4′,3′:1,6]pyrido[3,2-c]benzo[g][1,5]oxazonin-4-yl)piperidine-1-carboxylate]", "IC50": "> 500"},
      {"compound": "Cc1ncc(-c2cc3c(n4cnnc24)NCc2c(F)cccc2COC3)c(C)n1", "note": "[Compound 182, 4-(2,4-dimethylpyrimidin-5-yl)-12-fluoro-6,8,13,14-tetrahydro-[1,2,4]triazolo[4′,3′:1,6]pyrido[3,2-c]benzo[g][1,5]oxazonine]", "IC50": "> 500"},
      {"compound": "Cn1cc(Cc2cc3c(n4cnnc24)NCc2c(F)cccc2COC3)cn1", "note": "[Compound 183, 12-fluoro-4-((1-methyl-1H-pyrazol-4-yl)methyl)-6,8,13,14-tetrahydro-[1,2,4]triazolo[4′,3′:1,6]pyrido[3,2-c]benzo[g][1,5]oxazonine]", "IC50": "> 500"}
    ]}
  ]
}
